Assay results reported in US6610473B1 (priority 1999, dated 2003).

Target: HPV16-E6 protein (Human papillomavirus type 16, UniProt P03126)
Sequence (P03126 whole entry): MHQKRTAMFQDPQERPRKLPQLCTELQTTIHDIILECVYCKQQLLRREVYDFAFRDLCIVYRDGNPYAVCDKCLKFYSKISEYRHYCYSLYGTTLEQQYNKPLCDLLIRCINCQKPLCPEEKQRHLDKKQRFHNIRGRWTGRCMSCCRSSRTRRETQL

Substance	clones obtained in another screening assay for HPV-E6 protein-binding peptides
NH2-LFDIFRLCAQ PVLVHGHTRV-COOH [E61-20.pep]	obtained
NH2-LVGRVRIGVS VFIRGGRLL-COOH [E61-19.pep]	obtained
